Active and inactive are the calls of the source. No cut-off for these calls is given here.
Columns and labels:
Rattus norvegicus [1] = organism: Rattus norvegicus; assay: Inhibition of rat liver MAO assessed as release of 4-hydroxyquinoline from kynuramine at 3.6 x 10^-6 M preincubated for 10 mins
Rattus norvegicus [2] = organism: Rattus norvegicus; assay: Inhibition of rat liver MAO assessed as release of 4-hydroxyquinoline from kynuramine at 3.6 x 10^-6 M
Mus musculus [3] = assay: Induction of gross behavioral activity in Swiss albino mouse assessed as increase in clonic seizure of hind quarters at 25 mg/kg, ip in presence of 3 mg/kg of cyprohepatidine; assay type: functional, organism-based
Mus musculus [4] = assay: Induction of gross behavioral activity in Swiss albino mouse assessed as increase in clonic seizure of hind quarters at 25 mg/kg, ip in presence of 2 to 25 mg/kg of methysergide; assay type: functional, organism-based
Mus musculus [5] = assay: Induction of gross behavioral activity in ip dosed Swiss albino mouse assessed as minimum effective dose; assay type: functional; details: read-out: MED
Mus musculus [6] = assay: Induction of gross behavioral activity in 3 mg/kg of cyprohepatidine treated Swiss albino mouse assessed as increase in clonic seizure of hind quarters at 25 mg/kg, ip treated 40 mins after cyprohepatidine administration; assay type: functional, organism-based
Mus musculus [7] = assay: Induction of gross behavioral activity in Swiss albino mouse assessed as increase in clonic seizure of hind quarters at 25 mg/kg, ip in presence of 5HT antagonist BOL; assay type: functional, organism-based; design: dose 25 mg/kg
Mus musculus [8] = assay: Induction of gross behavioral activity in Swiss albino mouse assessed as clonic seizure of hind quarters at 50 mg/kg, ip after 10 to 15 mins; assay type: functional, organism-based; design: dose 50 mg/kg
Mus musculus [9] = assay: Induction of gross behavioral activity in Swiss albino mouse assessed as decrease in motor activity with some clonic seizure at 50 mg/kg, ip after 25 to 30 mins; assay type: functional, organism-based; design: dose 50 mg/kg

SMILES | inhibition (Rattus norvegicus [1]) | inhibition (Rattus norvegicus [2]) | Activity (Mus musculus [3]) | Activity (Mus musculus [4]) | minimal effective dose (Mus musculus [5]) | Activity (Mus musculus [6]) | Activity (Mus musculus [7]) | Activity (Mus musculus [8]) | Activity (Mus musculus [9])
C#CCN(C)Cc1ccccc1 | 78% | 45% | – | – | – | – | – | – | –
NCCc1c[nH]c2ccccc12 [TRYPTAMINE] | – | – | Active | Active | < 25 mg/kg | inactive | inactive | Active | Active

From ChEMBL document CHEMBL3244204, “Acetylenics. 2. Synthesis and pharmacology of certain N,N-diakyl-3-phenylpropyn-2-amines. Some analogues with tryptamine-like behavioral effects in mice” (J Med Chem, 1978)
